Reference: ChEMBL document CHEMBL1201862, “PubChem BioAssay data set” (2004)
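Growth conditions: 96-well plates. Treatment: test compound, 48 hours, 5 concentrations. Analysis: linear interpolation between bracketing concentrations; unreached endpoints set to highest concentration. GI50 is the concentration that inhibits growth by half.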 Activity calls are given as the source filed them. Cut-off read from the data, not from the text of the source: active = GI50 up to about 1.1 µM and inactive = higher.

Legend:
Experiment in all cases: growth of human tumour cells (NCI), 48 h
DMS-273 = tested on: DMS-273
LXFL 529 = tested on: LXFL 529
XF498 = tested on: XF498
HOP-18 = tested on: HOP-18
M19-MEL = tested on: M19-MEL
DLD-1 = tested on: DLD-1
RXF 631 = tested on: RXF 631
DMS-114 = tested on: DMS-114

Measured: GI50

CC(=O)CN(Cc1cc(C)c2c(c1)c1ccccc1n2Cc1ccccc1)S(=O)(=O)c1ccc(C)cc1
inactive: DMS-273 > 100 µM | LXFL 529 > 100 µM | XF498 > 100 µM | HOP-18 > 100 µM | M19-MEL > 100 µM | DLD-1 > 100 µM | RXF 631 > 100 µM | DMS-114 > 100 µM

COc1cccc(N2C(=O)C3C4C=C5c6ccccc6N(c6ccccc6)C5(C3C2=O)[C@H]2C(=O)N(c3cccc(OC)c3)C(=O)[C@@H]42)c1 (some centres undefined)
inactive: DMS-273 > 100 µM | LXFL 529 > 100 µM | XF498 > 100 µM | HOP-18 > 100 µM | M19-MEL > 100 µM | DLD-1 > 100 µM | RXF 631 > 100 µM | DMS-114 > 100 µM

CCc1ccccc1NC(=O)C(=O)C1C(=O)N(c2ccccc2)N=C1N (centres undefined)
inactive: DMS-273 > 100 µM | LXFL 529 > 100 µM | XF498 > 100 µM | HOP-18 > 100 µM | M19-MEL > 100 µM | DLD-1 > 100 µM | RXF 631 > 100 µM | DMS-114 > 100 µM

CCOC(=O)C1Cc2c(ccc(OC)c2OC)C(=O)C1N (centres undefined)
inactive: DMS-273 > 100 µM | LXFL 529 94.8 µM | XF498 > 100 µM | HOP-18 97.5 µM | M19-MEL > 100 µM | DLD-1 > 100 µM | RXF 631 > 100 µM | DMS-114 > 100 µM

CC(CNCCCNCCNCCCNCO)[N+](=O)[O-] (centres undefined)
inactive: DMS-273 16.5 µM | LXFL 529 3.99 µM | XF498 16.1 µM | HOP-18 14.7 µM | DLD-1 3.63 µM | RXF 631 16 µM | DMS-114 16.6 µM
